Assay results taken from patent US20260365647A1, “AKT1 MODULATORS” (Alterome Therapeutics, Inc., priority 2022, published 2026).

Each compound was assayed against T1, AKT1-E17K (Homo sapiens, UniProt P31749, E17K) (assay: NanoBRET Target Engagement (TE) Assay).
T1 construct: host or cells: HEK-293 (ATCC CRL-1573)
Format: cell-based
Procedure, shortened: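 Live cells transiently expressing NanoLuc-AKT1 E17K fusion, incubated 2 h with tracer and compound before substrate plus extracellular NanoLuc inhibitor were added. BRET read at 450/600 nm; EC50 from variable-slope sigmoidal fit of tracer displacement.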

T1 sequence (P31749 whole entry E17K): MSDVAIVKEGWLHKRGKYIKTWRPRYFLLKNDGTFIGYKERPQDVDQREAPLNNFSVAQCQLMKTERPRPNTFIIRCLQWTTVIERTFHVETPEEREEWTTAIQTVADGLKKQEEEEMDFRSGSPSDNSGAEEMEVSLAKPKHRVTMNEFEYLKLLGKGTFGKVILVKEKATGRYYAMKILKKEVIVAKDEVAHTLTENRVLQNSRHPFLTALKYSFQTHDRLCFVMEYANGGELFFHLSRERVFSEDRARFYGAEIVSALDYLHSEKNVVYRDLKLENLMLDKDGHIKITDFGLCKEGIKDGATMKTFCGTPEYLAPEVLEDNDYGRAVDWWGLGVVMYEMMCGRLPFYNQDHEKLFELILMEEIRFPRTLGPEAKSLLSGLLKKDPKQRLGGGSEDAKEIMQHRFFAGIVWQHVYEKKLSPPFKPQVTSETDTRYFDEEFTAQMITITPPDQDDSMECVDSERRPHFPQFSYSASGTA

IC50	SMILES
60 to 600 nM	Nc1ncccc1-c1nc2ccc(-c3ccccc3)nc2n1-c1ccc(CN2CCC3(CCN(C(=O)c4ccc(O)c(C=O)c4)CC3)C2)cc1 [Example 84, 5-(2-(4-(2-(2-Aminopyridin-3-yl)-5-phenyl-3H-imidazo[4,5-b]pyridin-3-yl)benzyl)-2,8-diazaspiro[4.5]decane-8-carbonyl)-2-hydroxybenzaldehyde]
60 to 600 nM	Nc1ncccc1-c1nc2ccc(-c3ccccc3)nc2n1-c1ccc(CN2CCC3(CCN(c4ccc(C=O)c(O)c4)CC3)C2)cc1 [Example 85, 4-(2-(4-(2-(2-Aminopyridin-3-yl)-5-phenyl-3H-imidazo[4,5-b]pyridin-3-yl)benzyl)-2,8-diazaspiro[4.5]decan-8-yl)-2-hydroxybenzaldehyde]
60 to 600 nM	Nc1ncccc1-c1nc2ccc(-c3ccccc3)nc2n1-c1ccc(CN2CCC3(CCCN(C(=O)c4ccc(O)c(C=O)c4)C3)C2)cc1 (centres unmarked) [Example 86, 5-(2-(4-(2-(2-Aminopyridin-3-yl)-5-phenyl-3H-imidazo[4,5-b]pyridin-3-yl)benzyl)-2,7-diazaspiro[4.5]decane-7-carbonyl)-2-hydroxybenzaldehyde]
60 to 600 nM	Nc1ncccc1-c1nc2ccc(-c3ccccc3)nc2n1-c1ccc(CN2CCC3(CCCN(C(=O)c4ccc(C=O)c(O)c4)C3)C2)cc1 (centres unmarked) [Example 87, 4-(2-(4-(2-(2-Aminopyridin-3-yl)-5-phenyl-3H-imidazo[4,5-b]pyridin-3-yl)benzyl)-2,7-diazaspiro[4.5]decane-7-carbonyl)-2-hydroxybenzaldehyde]
60 to 600 nM	Nc1ncccc1-c1nc2ccc(-c3ccccc3)nc2n1-c1ccc(CN2CCC3(CCCN(c4ccc(C=O)c(O)c4)C3)C2)cc1 (centres unmarked) [Example 88, 4-(2-(4-(2-(2-Aminopyridin-3-yl)-5-phenyl-3H-imidazo[4,5-b]pyridin-3-yl)benzyl)-2,7-diazaspiro[4.5]decan-7-yl)-2-hydroxybenzaldehyde]
15 to 60 nM	Nc1ncccc1-c1nc2ccc(-c3ccccc3)nc2n1-c1ccc(CN2CC3(C2)CN(c2ccc(C=O)c(O)c2)C3)cc1 [Example 89, 4-(6-(4-(2-(2-aminopyridin-3-yl)-5-phenyl-3H-imidazo[4,5-b]pyridin-3-yl)benzyl)-2,6-diazaspiro[3.3]heptan-2-yl)-2-hydroxybenzaldehyde]
60 to 600 nM	Nc1ncccc1-c1nc2ccc(-c3ccccc3)nc2n1-c1ccc(CN2CCC3(CCN(C(=O)c4ccc(C=O)c(O)c4)CC3)C2)cc1 [Example 90, 4-(2-(4-(2-(2-Aminopyridin-3-yl)-5-phenyl-3H-imidazo[4,5-b]pyridin-3-yl)benzyl)-2,8-diazaspiro[4.5]decane-8-carbonyl)-2-hydroxybenzaldehyde]
60 to 600 nM	Nc1ncccc1-c1nc2ccc(-c3ccccc3)nc2n1-c1ccc(CN2CC3(C2)CN(c2ccc(O)c(C=O)c2)C3)cc1 [Example 91, 5-(6-(4-(2-(2-Aminopyridin-3-yl)-5-phenyl-3H-imidazo[4,5-b]pyridin-3-yl)benzyl)-2,6-diazaspiro[3.3]heptan-2-yl)-2-hydroxybenzaldehyde]
15 to 60 nM	Nc1ncccc1-c1nc2ccc(-c3ccccc3)nc2n1-c1ccc(CN2CC3(CCN(C(=O)c4ccc(O)c(C=O)c4)C3)C2)cc1 [Example 92, 5-(2-(4-(2-(2-Aminopyridin-3-yl)-5-phenyl-3H-imidazo[4,5-b]pyridin-3-yl)benzyl)-2,6-diazaspiro[3.4]octane-6-carbonyl)-2-hydroxybenzaldehyde]
60 to 600 nM	Nc1ncccc1-c1nc2ccc(-c3ccccc3)nc2n1-c1ccc(CN2CC3(CCN(C(=O)c4ccc(C=O)c(O)c4)C3)C2)cc1 [Example 93, 4-(2-(4-(2-(2-Aminopyridin-3-yl)-5-phenyl-3H-imidazo[4,5-b]pyridin-3-yl)benzyl)-2,6-diazaspiro[3.4]octane-6-carbonyl)-2-hydroxybenzaldehyde]
15 to 60 nM	Nc1ncccc1-c1nc2ccc(-c3ccccc3)nc2n1-c1ccc(CN2CC3(CCN(c4ccc(C=O)c(O)c4)C3)C2)cc1 [Example 94, 4-(2-(4-(2-(2-Aminopyridin-3-yl)-5-phenyl-3H-imidazo[4,5-b]pyridin-3-yl)benzyl)-2,6-diazaspiro[3.4]octan-6-yl)-2-hydroxybenzaldehyde]
60 to 600 nM	Nc1ncccc1-c1nc2ccc(-c3ccccc3)nc2n1-c1ccc(CN2CC3(CCN(C(=O)c4ccc(O)c(C=O)c4)CC3)C2)cc1 [Example 95, 5-(2-(4-(2-(2-Aminopyridin-3-yl)-5-phenyl-3H-imidazo[4,5-b]pyridin-3-yl)benzyl)-2,7-diazaspiro[3.5]nonane-7-carbonyl)-2-hydroxybenzaldehyde]
60 to 600 nM	Nc1ncccc1-c1nc2ccc(-c3ccccc3)nc2n1-c1ccc(CN2CC3(CCN(C(=O)c4ccc(C=O)c(O)c4)CC3)C2)cc1 [Example 96, 4-(2-(4-(2-(2-Aminopyridin-3-yl)-5-phenyl-3H-imidazo[4,5-b]pyridin-3-yl)benzyl)-2,7-diazaspiro[3.5]nonane-7-carbonyl)-2-hydroxybenzaldehyde]
60 to 600 nM	Nc1ncccc1-c1nc2ccc(-c3ccccc3)nc2n1-c1ccc(CN2CC3(CCN(c4ccc(C=O)c(O)c4)CC3)C2)cc1 [Example 97, 4-(2-(4-(2-(2-Aminopyridin-3-yl)-5-phenyl-3H-imidazo[4,5-b]pyridin-3-yl)benzyl)-2,7-diazaspiro[3.5]nonan-7-yl)-2-hydroxybenzaldehyde]
15 to 60 nM	Nc1ncccc1-c1nc2ccc(-c3ccccc3)nc2n1-c1ccc(CN2CC[C@@]3(CCN(C(=O)c4ccc(O)c(C=O)c4)C3)C2)cc1 [Example 98, (R)-5-(7-(4-(2-(2-aminopyridin-3-yl)-5-phenyl-3H-imidazo[4,5-b]pyridin-3-yl)benzyl)-2,7-diazaspiro[4.4]nonane-2-carbonyl)-2-hydroxybenzaldehyde]
60 to 600 nM	Nc1ncccc1-c1nc2ccc(-c3ccccc3)nc2n1-c1ccc(CN2CC[C@@]3(CCN(C(=O)c4ccc(C=O)c(O)c4)C3)C2)cc1 [Example 99, (R)-4-(7-(4-(2-(2-aminopyridin-3-yl)-5-phenyl-3H-imidazo[4,5-b]pyridin-3-yl)benzyl)-2,7-diazaspiro[4.4]nonane-2-carbonyl)-2-hydroxybenzaldehyde]
60 to 600 nM	Nc1ncccc1-c1nc2ccc(-c3ccccc3)nc2n1-c1ccc(CN2CC[C@@]3(CCN(c4ccc(C=O)c(O)c4)C3)C2)cc1 [Example 100, (R)-4-(7-(4-(2-(2-Aminopyridin-3-yl)-5-phenyl-3H-imidazo[4,5-b]pyridin-3-yl)benzyl)-2,7-diazaspiro[4.4]nonan-2-yl)-2-hydroxybenzaldehyde]
60 to 600 nM	Nc1ncccc1-c1nc2ccc(-c3ccccc3)nc2n1-c1ccc(CN2CC[C@]3(CCN(C(=O)c4ccc(O)c(C=O)c4)C3)C2)cc1 [Example 101, (S)-5-(7-(4-(2-(2-Aminopyridin-3-yl)-5-phenyl-3H-imidazo[4,5-b]pyridin-3-yl)benzyl)-2,7-diazaspiro[4.4]nonane-2-carbonyl)-2-hydroxybenzaldehyde]
60 to 600 nM	Nc1ncccc1-c1nc2ccc(-c3ccccc3)nc2n1-c1ccc(CN2CC[C@]3(CCN(C(=O)c4ccc(C=O)c(O)c4)C3)C2)cc1 [Example 102, (S)-4-(7-(4-(2-(2-Aminopyridin-3-yl)-5-phenyl-3H-imidazo[4,5-b]pyridin-3-yl)benzyl)-2,7-diazaspiro[4.4]nonane-2-carbonyl)-2-hydroxybenzaldehyde]
60 to 600 nM	Nc1ncccc1-c1nc2ccc(-c3ccccc3)nc2n1-c1ccc(CN2CC[C@]3(CCN(c4ccc(C=O)c(O)c4)C3)C2)cc1 [Example 103, (S)-4-(7-(4-(2-(2-Aminopyridin-3-yl)-5-phenyl-3H-imidazo[4,5-b]pyridin-3-yl)benzyl)-2,7-diazaspiro[4.4]nonan-2-yl)-2-hydroxybenzaldehyde]
60 to 600 nM	C[C@@H]1CN(Cc2ccc(-n3c(-c4cccnc4N)nc4ccc(-c5ccccc5)nc43)cc2)CCN1c1ccc(C=O)c(O)c1 [Example 104, (R)-4-(4-(4-(2-(2-Aminopyridin-3-yl)-5-phenyl-3H-imidazo[4,5-b]pyridin-3-yl)benzyl)-2-methylpiperazin-1-yl)-2-hydroxybenzaldehyde]
60 to 600 nM	C[C@H]1CN(Cc2ccc(-n3c(-c4cccnc4N)nc4ccc(-c5ccccc5)nc43)cc2)CCN1C(=O)c1ccc(O)c(C=O)c1 [Example 105, (S)-5-(4-(4-(2-(2-Aminopyridin-3-yl)-5-phenyl-3H-imidazo[4,5-b]pyridin-3-yl)benzyl)-2-methylpiperazine-1-carbonyl)-2-hydroxybenzaldehyde]
> 600 nM	C[C@H]1CN(Cc2ccc(-n3c(-c4cccnc4N)nc4ccc(-c5ccccc5)nc43)cc2)CCN1C(=O)c1ccc(C=O)c(O)c1 [Example 106, (S)-4-(4-(4-(2-(2-Aminopyridin-3-yl)-5-phenyl-3H-imidazo[4,5-b]pyridin-3-yl)benzyl)-2-methylpiperazine-1-carbonyl)-2-hydroxybenzaldehyde]
60 to 600 nM	C[C@H]1CN(Cc2ccc(-n3c(-c4cccnc4N)nc4ccc(-c5ccccc5)nc43)cc2)CCN1c1ccc(C=O)c(O)c1 [Example 107, (S)-4-(4-(4-(2-(2-aminopyridin-3-yl)-5-phenyl-3H-imidazo[4,5-b]pyridin-3-yl)benzyl)-2-methylpiperazin-1-yl)-2-hydroxybenzaldehyde]
60 to 600 nM	Nc1ncccc1-c1nc2ccc(-c3ccccc3)nc2n1-c1ccc(CN2CCN(c3ccc(C=O)c(O)c3)C3(CC3)C2)cc1 [Example 108, 4-(7-(4-(2-(2-Aminopyridin-3-yl)-5-phenyl-3H-imidazo[4,5-b]pyridin-3-yl)benzyl)-4,7-diazaspiro[2.5]octan-4-yl)-2-hydroxybenzaldehyde]
> 600 nM	Nc1ncccc1-c1nc2ccc(-c3ccccc3)nc2n1-c1ccc(CN2CC3CCC(C2)N3C(=O)c2ccc(C=O)c(O)c2)cc1 [Example 109, 4-(3-(4-(2-(2-Aminopyridin-3-yl)-5-phenyl-3H-imidazo[4,5-b]pyridin-3-yl)benzyl)-3,8-diazabicyclo[3.2.1]octane-8-carbonyl)-2-hydroxybenzaldehyde]
